# From patent US6331555A, “Treatment of platelet derived growth factor related disorders such as cancers” (priority 1999, dated 2001)
# Like-named read-outs stand apart in the source and are kept apart here.
# Key:
# MDA MB 361 = experiment: Tumor cell line growth; type: cell-based; details: Homo sapiens, MDA-MB-361, 96 h; breast, 4 days
# Protocol: (§1) The assay measures protein content of acid-fixed cells using the counterion binding dye sulforhodamine B (SRB, Sigma). […] For other cell lines, the cells (2000 cells/well in 100 μL) were introduced into wells immediately after dispensing the drug solutions. After 4 days (37° C., 5% CO2) the monolayers were washed 3 times with PBS and fixed with 200 μL ice-cold 10% TCA (Fisher Scientific), and kept at 4° C. for 60 min. The TCA was removed and the fixed monolayers were washed 5 times with tap water and allowed to dry completely at room temperature on absorbent paper. The cellular protein was stained for 10 min with 100 μL 0.4% SRB dissolved in 1% acetic acid. After 5 washes with tap water, the dye was solubilized in 10 mM Tris base (100 μL per well) and absorbance read at 570 nm on a Dynatech plate reader model MR5000. Growth inhibition data are expressed as a percentage of absorbance detected in control wells which were treated with 0.4% DMSO alone. DMSO controls were not different from cells grown in regular growth medium. IC50 values were determined using a four parameter curve fit function.
# (§2) For K562, DlB, L1210, 7TDl, T27A, and Colo320 DM cells, an MTT assay was used to assess cell growth. […] The cells were incubated at 37° C. for 4 days in a humidified 7% CO2 atmosphere. At the end point, […] of MTT (5 mg/mL in PBS, Sigma) was added to each well. The plates were incubated at 37° C. for 4 hr followed by addition of […] of solubilization solution (20% w/v of SDS in 50% N, N-dimethylformamide, pH 4.7) to each well. The plates were incubated overnight in a sealed container with a humidified atmosphere. The absorbance was determined at 570 nm wavelength with a reference wavelength of 630 nm using an ELISA plate reader.
# DU145 = experiment: Tumor cell line growth; type: cell-based; details: Homo sapiens, DU-145, 96 h; prostate, 4 days
# Protocol: as §1, §2
# SKOV3 = experiment: Tumor cell line growth; type: cell-based; details: Homo sapiens
# Protocol: as §1, §2
# T47D = experiment: Tumor cell line growth; type: cell-based; details: Homo sapiens, 96 h, breast, 4 days
# Protocol: as §1, §2
# A431 = experiment: Tumor cell line growth; type: cell-based; details: Homo sapiens, A-431, 96 h; epidermoid, 4 days
# Protocol: as §1, §2
# U87MG = experiment: Tumor cell line growth; type: cell-based; details: Homo sapiens, U-87 MG, 96 h; glioma, 4 days
# Protocol: as §1, §2
# A375 = experiment: Tumor cell line growth; type: cell-based; details: Homo sapiens, A-375, 96 h; melanoma, 4 days
# Protocol: as §1, §2
# Colo 320DM = experiment: Tumor cell line growth; type: cell-based; details: Homo sapiens, 96 h, colon, 4 days
# Protocol: as §1, §2
# U373MG = experiment: Tumor cell line growth; type: cell-based; details: Homo sapiens, U373 MG, 96 h; glioma, 4 days
# Protocol: as §1, §2
# U138MG = experiment: Tumor cell line growth; type: cell-based; details: Homo sapiens, U138-MG, 96 h; glioma, 4 days
# Protocol: as §1, §2
# BT549 = experiment: Tumor cell line growth; type: cell-based; details: Homo sapiens, BT-549, 96 h; breast, 4 days
# Protocol: as §1, §2
# SF767T = experiment: Tumor cell line growth; type: cell-based; details: Homo sapiens
# Protocol: as §1, §2
# SF763T = experiment: Tumor cell line growth; type: cell-based; details: Homo sapiens, 96 h; glioma, 4 days
# Protocol: as §1, §2
# T98G = experiment: Tumor cell line growth; type: cell-based; details: Homo sapiens, 96 h, glioma, 4 days
# Protocol: as §1, §2
# MDA MB 468 = experiment: Tumor cell line growth; type: cell-based; details: Homo sapiens, MDA-MB-468, 96 h; breast, 4 days
# Protocol: as §1, §2
# ZR 75-1 = experiment: Tumor cell line growth; type: cell-based; details: Homo sapiens, ZR-75-1, 96 h; breast, 4 days
# Protocol: as §1, §2
# A172 = experiment: Tumor cell line growth; type: cell-based; details: Homo sapiens, A 172, 96 h; glioma, 4 days
# Protocol: as §1, §2
# U118MG = experiment: Tumor cell line growth; type: cell-based; details: Homo sapiens, U-118-MG, 96 h; glioma, 4 days
# Protocol: as §1, §2
# MCF7/HER2 = experiment: Tumor cell line growth; type: cell-based; details: Homo sapiens, MCF7, 96 h; breast, 4 days
# Protocol: as §1, §2
# PA-1 = experiment: Tumor cell line growth; type: cell-based; details: Homo sapiens, PA-1, 96 h; ovarian, 4 days
# Protocol: as §1, §2
# U1240 = experiment: Tumor cell line growth; type: cell-based; details: 96 h; glioma, 4 days
# Protocol: as §1, §2
# C81-61 = experiment: Tumor cell line growth; type: cell-based; details: Homo sapiens, C8161, 96 h; melanoma, 4 days
# Protocol: as §1, §2
# PC3 = experiment: Tumor cell line growth; type: cell-based; details: Homo sapiens, PC-3, 96 h; prostate, 4 days
# Protocol: as §1, §2
# Ovcar3 = experiment: Tumor cell line growth; type: cell-based; details: Homo sapiens, OVCAR-3, 96 h; ovarian, 4 days
# Protocol: as §1, §2
# ZR75-30 = experiment: Tumor cell line growth; type: cell-based; details: Homo sapiens, ZR-75-30, 96 h; breast, 4 days
# Protocol: as §1, §2
# U1242 = experiment: Tumor cell line growth; type: cell-based; details: 96 h; glioma, 4 days
# Protocol: as §1, §2
# SKOV3T = experiment: Tumor cell line growth; type: cell-based; details: Homo sapiens
# Protocol: as §1, §2
# D1B leukemia = experiment: SC syngeneic leukemia model in mice; type: in vivo, murine; details: DBA/2, 20 mg/kg/day, day 22
# Protocol: Cell lines were grown in appropriate medium (see Appendix 1). Cells were harvested at or near confluency with 0.05% Trypsin-EDTA and pelleted at 450×g for 10 min. Pellets were resuspended in sterile PBS or media (without FBS) to a particular concentration and the cells were implanted into the hindflank of mice. Tumor growth was measured over 3 to 6 weeks using venier calipers. Tumor volumes were calculated as a product of length×width×height unless otherwise indicated. P values were calculated using the Students' t-test.
# [1] = PDGF-R expression ++, read-out: SRB
smiles,measurement,setting,value
"Cc1oncc1C(=O)Nc1ccc(C(F)(F)F)cc1 [Compound A10, 5-methylisoxazole-4 carboxylic acid-(4-trifluromethyl)-anilide]",IC50,MDA MB 361,200 µM
same,IC50,DU145,> 100 µM
same,IC50,"SKOV3; SK-OV-3, 96 h, ovarian, 4 days, read-out: IC50",> 100 µM
same,IC50,"SKOV3; SK-OV-3, PDGF-R expression -, read-out: SRB",> 100 µM
same,IC50,T47D,195 µM
same,IC50,A431,34 µM
same,IC50,U87MG,78 µM
same,IC50,A375,25 µM
same,IC50,Colo 320DM,34 µM
same,IC50,U373MG,115 µM
same,IC50,U138MG,> 400 µM
same,IC50,BT549,> 400 µM
same,IC50,"SF767T; 96 h, glioma, 4 days, read-out: IC50",3 µM
same,IC50,SF767T; [1],3 µM
same,IC50,SF763T,0.8 µM
same,IC50,T98G,62 µM
same,IC50,MDA MB 468,150 µM
same,IC50,ZR 75-1,355 µM
same,IC50,A172,32 µM
same,IC50,U118MG,150 µM
same,IC50,MCF7/HER2,116 µM
same,IC50,PA-1,40 µM
same,IC50,U1240,250 µM
same,IC50,C81-61,40 µM
same,IC50,PC3,46 µM
same,IC50,Ovcar3,> 100 µM
same,IC50,ZR75-30,300 µM
same,IC50,U1242,19 µM
same,IC50,"SKOV3T; 96 h, ovarian, 4 days, read-out: IC50",40 µM
same,IC50,SKOV3T; [1],50 µM
same,% Inhibition,D1B leukemia,95%
